Values joined by “and” are separate entries in the source; they are usually repeats but may differ in a detail not shown here. Equal entries are not always repeated.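 Assay format: 96-well plates, 48-hour exposure. GI50 is the concentration that inhibits growth by half. TGI marks complete inhibition of growth.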 Some results are limits rather than exact numbers.

Experimental findings from PubChem BioAssay (NCI) are described below.

Among the test systems are HOP-62 NSCLC; NCI-H226 lung; U251 CNS; OVCAR-5 ovarian; SK-MEL-2 melanoma; RXF 393 renal; RPMI-8226 leukemia; CCRF-CEM leukemia; A549 NSCLC; PC-3 prostate; K-562 leukemia; NCI/ADR-RES ovarian.
Common to all, as to assay: growth of human tumour cells (NCI), 48 h

Take `Cc1cn(C2CC(N)C(CN)O2)c(=O)[nH]c1=O` (stereo not drawn): the TGI with HOP-62 NSCLC, in the test with NCI-H226 lung, in the test on U251 CNS, in the test with OVCAR-5 ovarian, in the test with SK-MEL-2 melanoma and with RXF 393 renal was over 100 µM each time. Further, the TGI with RPMI-8226 leukemia, in the test with CCRF-CEM leukemia, with A549 NSCLC, in the test on PC-3 prostate, in the test with K-562 leukemia and with NCI/ADR-RES ovarian was over 100 µM throughout.

Take `Clc1nc(Cl)nc(NC23CC4CC(CC(C4)C2)C3)n1`: the TGI with HOP-62 NSCLC was 34.5 µM; with NCI-H226 lung it was 44.2 µM; in the test with U251 CNS it was 30.5 µM; with OVCAR-5 ovarian it was 39.5 µM; with SK-MEL-2 melanoma, over 41.8 µM; with RXF 393 renal, 32.1 µM. Further, the TGI in the test with RPMI-8226 leukemia was 38.4 µM; in the test with CCRF-CEM leukemia, 23.1 µM; with A549 NSCLC, 38.5 µM; in the test with PC-3 prostate, over 49.6 µM; with K-562 leukemia it was 33.7 µM; with NCI/ADR-RES ovarian, 44.5 µM.

For `CCOC(=O)c1cc(=C2\CCN(CC(C)CC)C2=S)/c(=C(/O)CC)[nH]1` (stereo not drawn), the TGI in the test with NCI-H226 lung is 45.3 µM; with U251 CNS, 26.5 µM; with SK-MEL-2 melanoma, 44.4 µM; in the test on RXF 393 renal, 44.9 µM; in the test with RPMI-8226 leukemia, 25.4 µM; in the test on CCRF-CEM leukemia it was 21.7 µM. Moreover, the TGI in the test with A549 NSCLC was over 100 µM; in the test on PC-3 prostate, 38.8 µM; in the test on K-562 leukemia, 37.8 µM; in the test on NCI/ADR-RES ovarian it was 75.3 µM.

As for `N#Cc1c(N)[nH]c(=S)c(C#N)c1-c1cccc(Cl)c1`, the TGI was over 100 µM with HOP-62 NSCLC; over 100 µM with NCI-H226 lung; over 100 µM in the test on U251 CNS; over 100 µM in the test with OVCAR-5 ovarian; 56.6 µM with SK-MEL-2 melanoma; 46.6 µM with RXF 393 renal. Besides, the TGI was 94.5 µM with RPMI-8226 leukemia; over 100 µM in the test with A549 NSCLC; 60.1 µM in the test on PC-3 prostate; over 100 µM in the test on K-562 leukemia; over 100 µM in the test on NCI/ADR-RES ovarian.

Take `CC(=O)NC1C(OCc2ccccc2)OC(CO)C(O)C1OCC(=O)N[C@@H](C)C(=O)N[C@H](CCC(=O)NCCNCCNc1c2ccccc2nc2cccc([N+](=O)[O-])c12)C(N)=O` (stereo partly drawn): the TGI in the test on HOP-62 NSCLC was over 100 µM; with U251 CNS, over 100 µM; in the test with OVCAR-5 ovarian, over 100 µM; with SK-MEL-2 melanoma it was 46.5 µM; with RXF 393 renal, 64 µM; in the test on RPMI-8226 leukemia, 73.3 µM. Also, the TGI is over 100 µM with CCRF-CEM leukemia; over 100 µM in the test with A549 NSCLC; 73 µM in the test with PC-3 prostate; over 100 µM with K-562 leukemia; over 100 µM in the test with NCI/ADR-RES ovarian.

Regarding `O=C1CC(O)c2c1csc2Br` (stereo not drawn), the TGI in the test on HOP-62 NSCLC was over 100 µM; with U251 CNS, 41 µM; with OVCAR-5 ovarian, over 100 µM; in the test on SK-MEL-2 melanoma it was over 100 µM; in the test with RXF 393 renal, 38.1 µM; in the test with RPMI-8226 leukemia, 74.5 µM. The TGI was 55.1 µM in the test on CCRF-CEM leukemia; over 100 µM with A549 NSCLC; over 100 µM in the test on PC-3 prostate; 76.7 µM in the test with K-562 leukemia; 49 µM in the test with NCI/ADR-RES ovarian.

On to `CCOc1ccc(N/C(=C(/C(Cl)=C(/Cl)NCCN)[N+](=O)[O-])n2nnc3ccccc32)cc1`, for which the TGI in the test with HOP-62 NSCLC, in the test on NCI-H226 lung, in the test with U251 CNS, with OVCAR-5 ovarian, in the test with SK-MEL-2 melanoma and with RPMI-8226 leukemia was over 100 µM throughout. The TGI in the test on CCRF-CEM leukemia, in the test with A549 NSCLC, with PC-3 prostate, with K-562 leukemia and in the test with NCI/ADR-RES ovarian was over 100 µM throughout.

In the case of `O=C1CC2C=CC(O)C(C1)C2` (stereo not drawn), the TGI in the test on HOP-62 NSCLC was over 100 µM; in the test on NCI-H226 lung it was over 100 µM; in the test on U251 CNS it was over 100 µM; in the test with OVCAR-5 ovarian, over 100 µM; in the test with SK-MEL-2 melanoma, over 100 µM; in the test with RXF 393 renal, 12.2 µM. Further, the TGI in the test with RPMI-8226 leukemia, in the test with CCRF-CEM leukemia, in the test on PC-3 prostate, in the test on K-562 leukemia and in the test with NCI/ADR-RES ovarian was over 100 µM in each case.

On to `Cc1c(Cl)ccc2c(=O)c3cccc(CC(=O)O)c3oc12`, for which the TGI with HOP-62 NSCLC, in the test on NCI-H226 lung, in the test on U251 CNS, with SK-MEL-2 melanoma, in the test on RPMI-8226 leukemia and in the test with CCRF-CEM leukemia was over 100 µM each time. For the same molecule, the TGI with A549 NSCLC, in the test with PC-3 prostate, with K-562 leukemia and with NCI/ADR-RES ovarian was over 100 µM each time.

As to `Cc1ccccc1C1OC1C(=O)c1ccccc1N` (stereo not drawn), the TGI in the test with NCI-H226 lung, in the test on U251 CNS, in the test on OVCAR-5 ovarian, with SK-MEL-2 melanoma, in the test with RXF 393 renal and in the test with RPMI-8226 leukemia was over 100 µM each time. Moreover, the TGI with CCRF-CEM leukemia, in the test on A549 NSCLC, in the test with PC-3 prostate, in the test on K-562 leukemia and with NCI/ADR-RES ovarian was over 100 µM in each case.

Take `Cc1c(/C=N\NC(=S)N2CCN(C(=S)N/N=C\c3c(C)n(C)n(-c4ccccc4)c3=O)CC2)c(=O)n(-c2ccccc2)n1C`: the TGI is over 100 µM in the test with HOP-62 NSCLC; over 100 µM in the test with NCI-H226 lung; over 100 µM with U251 CNS; over 100 µM in the test on OVCAR-5 ovarian; 92.7 µM with SK-MEL-2 melanoma; over 100 µM with RXF 393 renal. Further, the TGI with A549 NSCLC, in the test on PC-3 prostate and in the test with NCI/ADR-RES ovarian was over 100 µM in each case.

On to `COc1ccc(-c2c(C#N)c(S)n(C3OC(COC(C)=O)C(OC(C)=O)C(OC(C)=O)C3OC(C)=O)c(=O)c2C#N)cc1` (stereo not drawn), for which the TGI in the test on HOP-62 NSCLC was 67.5 µM and > 100 µM; with NCI-H226 lung it was over 100 µM; in the test on U251 CNS, over 100 µM; in the test with OVCAR-5 ovarian, over 100 µM; with SK-MEL-2 melanoma, > 100 µM and 36.1 µM; in the test with RXF 393 renal, 71.7 µM and 73 µM. For the same molecule, the TGI was > 100 µM and 60.5 µM in the test on RPMI-8226 leukemia; over 100 µM with CCRF-CEM leukemia; over 100 µM in the test on A549 NSCLC; over 100 µM in the test on PC-3 prostate; over 100 µM with NCI/ADR-RES ovarian. For the same molecule, the GI50 is 36.8 µM and 75.2 µM with U251 CNS; 91.5 µM and 20 µM in the test on SK-MEL-2 melanoma; > 100 µM and 23.4 µM in the test on RPMI-8226 leukemia.
